# According to patent US20200095241A1, “SUBSTITUTED 1,2,4-THIADIAZOLYLPYRROLONES AND 1,2,4-THIADIAZOLYLHYDANTOINS AND SALTS THEREOF AND USE THEREOF AS HERBICIDES” (Bayer CropScience Aktiengesellschaft, priority 2016, published 2020):
# What was measured:
# [1] = tested on: Stellaria media; assay: Pre-emergence herbicidal action; format: in vivo; details: 1280 g/ha, after about 3 weeks; for pest or weed control at 1280 g/ha: Stellaria media, 504 h, read-out: Stellaria media, herbicidal effect scored visually
# Text: (§1) Seeds of monocotyledonous and dicotyledonous weed plants and crop plants were placed in plastic or organic planting pots and covered with soil. The compounds of the invention, formulated in the form of wettable powders (WP) or as emulsion concentrates (EC), were then applied onto the surface of the covering soil as aqueous suspension or emulsion with addition of 0.5% additive at a water application rate of 600 l/ha (converted). After the treatment, the pots were placed in a greenhouse and kept under good growth conditions for the test plants. After about 3 weeks, the effect of the preparations was scored visually in comparison with untreated controls as percentages. For example, 100% activity=the plants have died, 0% activity=like control plants. Tables B1 to B15 below show the effects of selected compounds of the general formula (I) according to Tables I.1 to I.44 on various harmful plants and an application rate corresponding to 1280 g/ha or 320 g/ha, which were obtained by the experimental procedure mentioned above.
# [2] = target: T1, photosystem II (PS II) (Spinacia oleracea, UniProt P69560); assay: Measurement of the PS II activity in thylakoid membranes (DCPIP reduction); format: biochemical; details: 100 μM test compound, spinach thylakoid membranes, DCPIP 120 μM, 10 min at 22° C. with exposure to light
# T1 construct: the chloroplasts were osmotically ruptured and the thylakoid membranes were then obtained by centrifugation; from tissue; host or cells: fresh spinach leaves; thylakoid membranes isolated from chloroplasts
# Procedure: Cooled fresh spinach leaves were comminuted and homogenized in 50 mM phosphate buffer, pH 6.8. 10 mM KCl, 0.34 M sucrose (sucrose buffer) (blender, 1 g of plant material/ml). The homogenate was subsequently filtered through 4 layers of Miracloth and the chloroplasts were isolated by centrifugation, i.e. 10 min of centrifugation at 4400×g (4° C.). The sediment was suspended in 25 ml of sucrose buffer and re-centrifuged for 10 min at 4400×g (4° C.). The sediment was then suspended in 40 ml of 50 mM phosphate buffer, pH 6.8, 10 mM KCl, without sucrose. In this step, the chloroplasts were osmotically ruptured and the thylakoid membranes were then obtained by centrifugation (10 min, 4400×g, 4° C.). The membrane sediment was finally suspended in 20 ml of 50 mM phosphate buffer, pH 6.8, 10 mM KCl. Following protein determination and activity determination, the membrane suspension was divided into aliquots and frozen in liquid nitrogen. The aliquots were stored at −80° C. Under these conditions, the photosystem II preparation was storage stable for at least three months. The activity determination of photosystem II (PS II) was then carried out using the following test principle:
# The electron transfer from PS II to an artificial electron acceptor, 2,6-dichlorophenolindophenol (DCPIP), was measured with exposure to light. The concentration of the blue oxidized form of DCPIP was determined spectrophotometrically at wavelength λ=595 nm. […] The activity determination was carried out in microtiter plates (96 cavities) in a reaction volume of 200 μl. Here, 155 μl of dilute membrane suspension were initially charged in 50 mM of phosphate buffer, pH 6.8, 10 mM KCl. Depending on the activity of the PS II preparation, the dilution was adjusted such that the measurement of the decrease in absorption (λ=595 nm) was linear for at least 10 min. In each case 5 μl solution of the test compounds of a concentration of 100 μM in DMSO were added to the enzyme suspension; controls contained 5 μl DMSO; the final concentration of DMSO in the reaction batch was thus 2.5% (v/v); this concentration had no adverse effect on the enzymatic activity. On each microtiter plate, a known PS II inhibitor, for example metribuzin, was used as standard, which allowed the quality of the PS II test to be assessed. The reaction was started by addition of 40 μl DCPIP solution (600 μM in distilled water); the final concentration of DCPIP was 120 μM. Measurement of absorption was carried out over a period of 10 min at 22° C. and with exposure to light. Using metribuzin as comparative substance, the results for the efficacy of the compounds of the general formula (I) at 100 μM are stated in the table below using the following classification: ++++ (inhibition≥90%), +++ ([…]≥70%), ++ (70%>inhibition≥50%), + (50%>inhibition≥30%).
# [3] = tested on: Matricaria inodora; assay: Pre-emergence herbicidal action; format: in vivo; details: 1280 g/ha, after about 3 weeks; for pest or weed control at 1280 g/ha: Tripleurospermum inodorum, 504 h, read-out: Matricaria inodora, herbicidal effect scored visually
# Text: as §1
# [4] = tested on: Poa annua; assay: Pre-emergence herbicidal action; format: in vivo; details: 1280 g/ha, after about 3 weeks
# Text: as §1
# [5] = tested on: Amaranthus retroflexus; assay: Post-emergence herbicidal action; format: in vivo; details: about 3 weeks after treatment
# Procedure: (§2) Seeds of monocotyledonous and dicotyledonous weeds and crop plants were placed in sandy loam in plastic or wood-fiber pots, covered with soil and cultivated in a greenhouse under controlled growth conditions. 2 to 3 weeks after sowing, the test plants were treated at the one-leaf stage. The compounds of the invention, formulated in the form of wettable powders (WP) or as emulsion concentrates (EC), were then sprayed onto the green parts of the plants as aqueous suspension or emulsion with addition of 0.5% additive at a water application rate of 600 l/ha (converted). After the test plants had been kept in the greenhouse under optimum growth conditions for about 3 weeks, the activity of the preparations was rated visually in comparison to untreated controls. For example, 100% activity=the plants have died, 0% activity=like control plants. Tables A1 to A12 below show the effects of selected compounds of the general formula (I) according to Tables I.1 to I.44 on various harmful plants and an application rate corresponding to 1280 g/ha or 320 g/ha, which were obtained by the experimental procedure mentioned above.
# [6] = tested on: Stellaria media; assay: Post-emergence herbicidal action; format: in vivo; details: 1280 g/ha, about 3 weeks after treatment; for pest or weed control at 1280 g/ha: Stellaria media, 504 h, read-out: Stellaria media, herbicidal activity rated visually
# Procedure: as §2
# [7] = tested on: Abutilon theophrasti; assay: Post-emergence herbicidal action; format: in vivo; details: about 3 weeks after treatment
# Procedure: as §2
# [8] = tested on: Amaranthus retroflexus; assay: Pre-emergence herbicidal action; format: in vivo; details: 1280 g/ha, after about 3 weeks
# Text: as §1
# [9] = tested on: Setaria viridis; assay: Pre-emergence herbicidal action; format: in vivo; details: Setaria viridis, 504 h, 1280 g/ha, after about 3 weeks, read-out: Setaria viridis, herbicidal effect scored visually
# Text: as §1
# [10] = tested on: Viola tricolor; assay: Pre-emergence herbicidal action; format: in vivo; details: Viola tricolor, 504 h, 1280 g/ha, after about 3 weeks, read-out: Viola tricolor, herbicidal effect scored visually
# Text: as §1
# [11] = tested on: Polygonum convolvulus; assay: Pre-emergence herbicidal action; format: in vivo; details: 1280 g/ha, after about 3 weeks
# Text: as §1
# [12] = tested on: Setaria viridis; assay: Post-emergence herbicidal action; format: in vivo; details: Setaria viridis, 504 h, 1280 g/ha, about 3 weeks after treatment, read-out: Setaria viridis, herbicidal activity rated visually
# Procedure: as §2
# [13] = tested on: Veronica persica; assay: Post-emergence herbicidal action; format: in vivo; details: 1280 g/ha, about 3 weeks after treatment
# Procedure: as §2
# [14] = tested on: Viola tricolor; assay: Post-emergence herbicidal action; format: in vivo; details: 504 h, 1280 g/ha, about 3 weeks after treatment, read-out: Viola tricolor, herbicidal activity rated visually
# Procedure: as §2
# [15] = tested on: Pharbitis purpurea; assay: Post-emergence herbicidal action; format: in vivo; details: 1280 g/ha, about 3 weeks after treatment
# Procedure: as §2
# [16] = tested on: Polygonum convolvulus; assay: Post-emergence herbicidal action; format: in vivo; details: 1280 g/ha, about 3 weeks after treatment
# Procedure: as §2
# [17] = tested on: Matricaria inodora; assay: Post-emergence herbicidal action; format: in vivo; details: 1280 g/ha, about 3 weeks after treatment
# Procedure: as §2
smiles,measurement,setting,value
"COC(C)(C)c1nsc(N2C(=O)C(C)=C(Cl)C2O)n1 (centres unmarked) [I.4-370, 4-Chloro-3-methyl-5-hydroxy-1-[3-(2-methoxyprop-2-yl)-1,2,4-thiadiazol-5-yl]-1,5-dihydro-2H-pyrrol-2-one]",pest or weed control at 1280 g/ha,[1],100%
CSc1nsc(N2C(=O)C(C)=C(C)C2O)n1 (centres unmarked) [I.2-303],Effect (inhibition of PS II activity),[2],+++ (90%≥inhibition≥70%)
same,"Stellaria media, herbicidal effect scored visually",[1],100%
same,"Matricaria inodora, herbicidal effect scored visually",[3],100%
same,"Poa annua, herbicidal effect scored visually",[4],90%
same,"Amaranthus retroflexus, herbicidal activity rated visually",[5]; 320 g/ha,100%
same,"Stellaria media, herbicidal activity rated visually",[6],100%
same,"Abutilon theophrasti, herbicidal activity rated visually",[7]; 320 g/ha,100%
"CC(C)c1nsc(N2C(=O)N(C)CC2O)n1 (centres unmarked) [I.13-5, 4-Hydroxy-1-methyl-3-[3-(isopropyl)-1,2,4-thiadiazol-5-yl]imidazolidin-2-one]",inhibition at 100 µM (stock),[2]; read-out: Effect (inhibition of PS II activity),70 to 90%
same,"Amaranthus retroflexus, herbicidal effect scored visually",[8],100%
same,pest or weed control at 1280 g/ha,[9],80%
same,pest or weed control at 1280 g/ha,[1],90%
same,pest or weed control at 1280 g/ha,[3],90%
same,pest or weed control at 1280 g/ha,[10],90%
same,"Polygonum convolvulus, herbicidal effect scored visually",[11],90%
same,"Amaranthus retroflexus, herbicidal activity rated visually",[5]; 1280 g/ha,100%
same,pest or weed control at 1280 g/ha,[12],100%
same,pest or weed control at 1280 g/ha,[6],100%
same,"Veronica persica, herbicidal activity rated visually",[13],100%
same,pest or weed control at 1280 g/ha,"[7]; Abutilon theophrasti, 504 h, 1280 g/ha, read-out: Abutilon theophrasti, herbicidal activity rated visually",100%
same,pest or weed control at 1280 g/ha,[14],100%
same,"Pharbitis purpurea, herbicidal activity rated visually",[15],90%
same,"Polygonum convolvulus, herbicidal activity rated visually",[16],90%
"CC1=C(Cl)C(=O)N(c2nc(C(C)C)ns2)C1O (centres unmarked) [I.3-5, 3-Chloro-4-methyl-5-hydroxy-1-(3-isopropyl-1,2,4-thiadiazol-5-yl)-1,5-dihydro-2H-pyrrol-2-one]",pest or weed control at 1280 g/ha,[9],90%
same,pest or weed control at 1280 g/ha,[1],90%
same,pest or weed control at 1280 g/ha,[3],90%
same,"Poa annua, herbicidal effect scored visually",[4],90%
same,pest or weed control at 1280 g/ha,[6],100%
same,"Matricaria inodora, herbicidal activity rated visually",[17],100%
